Usually Ki stands for a dissociation constant, usually derived from enzyme kinetics or from competition with a known ligand. Broadly, the IC50 is the midpoint of a concentration-inhibition curve.

Counter-ions that a name gives are not always drawn. Like-named read-outs stand apart in the source and are kept apart here.

Experimental findings from US7608577B2, “Peptidyl ketones as inhibitors of DPIV” (OSI Pharmaceuticals, Inc., priority 2001, dated 2009) are described below.

The target of test [1] is T1, dipeptidyl peptidase IV from porcine kidney (Sus scrofa, UniProt P22411).
T1 construct: dipeptidyl peptidase IV from porcine kidney with a specific activity against glycylprolyl-4-nitroaniline of 37.5 U/mg; from tissue; host or cells: porcine kidney
T1 sequence (P22411 whole entry): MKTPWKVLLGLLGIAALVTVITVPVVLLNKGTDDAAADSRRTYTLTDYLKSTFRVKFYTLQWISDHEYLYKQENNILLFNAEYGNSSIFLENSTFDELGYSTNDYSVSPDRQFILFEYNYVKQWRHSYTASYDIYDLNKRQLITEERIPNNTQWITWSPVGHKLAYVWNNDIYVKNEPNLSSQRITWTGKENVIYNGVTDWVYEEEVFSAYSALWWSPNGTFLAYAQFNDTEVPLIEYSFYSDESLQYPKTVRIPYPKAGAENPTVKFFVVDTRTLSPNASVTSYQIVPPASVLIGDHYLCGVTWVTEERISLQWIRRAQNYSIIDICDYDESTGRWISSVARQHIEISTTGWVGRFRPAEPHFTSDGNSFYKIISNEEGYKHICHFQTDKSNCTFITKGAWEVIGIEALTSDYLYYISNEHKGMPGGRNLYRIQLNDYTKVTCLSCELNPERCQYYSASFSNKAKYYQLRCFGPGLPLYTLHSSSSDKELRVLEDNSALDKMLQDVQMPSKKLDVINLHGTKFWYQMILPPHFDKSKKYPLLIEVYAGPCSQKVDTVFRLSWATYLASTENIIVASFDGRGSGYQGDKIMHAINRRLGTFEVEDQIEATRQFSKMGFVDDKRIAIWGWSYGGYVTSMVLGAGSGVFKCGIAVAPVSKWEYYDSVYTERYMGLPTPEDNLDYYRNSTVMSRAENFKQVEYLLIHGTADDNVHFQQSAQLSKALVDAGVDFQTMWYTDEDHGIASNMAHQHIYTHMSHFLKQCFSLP
The test is described as follows: Ki determination, DPIV inhibition (inhibitor released from prodrug by APN). The conditions noted are these: for Ki: porcine kidney DPIV, substrate Gly-Pro-pNA, APN added to release inhibitor, HEPES pH7.6; for T1/2 (half-life, from enzyme activity versus reaction time): same assay as Ki, unstable competitive inhibitor. The test is classed as biochemical. On the procedure:
500 μl test compound in a concentration range of 1*10^−5 M-1*10^−11M were admixed with and 500 μl HEPES buffer (40 mM, pH7.6; ion strength=0.125) and 20 μl of diluted DPIV. Release of the inhibitor from the prodrug as well the monitoring reaction (DPIV-catalyzed hydrolysis of Gly-Pro-pNA) were started by addition of a mixture of 10 μl of APN stock solution (4.9 mg/ml, Sigma, Taufkirchen, Germany) with 250 μl of the substrate (Gly-Pro-pNA, 0.05-4 mM). Development of yellow color due to 4-nitroaniline release were monitored at λ=405 nm for up to 180 min using UV1 Spectrometer (ThermoSpectronic).
The Ki-values were calculated by fitting the first derivative of the time-progress curves using Graphit (v.4.0.13, Erithacus Software, Ltd, UK) and an equation for an unstable competitive inhibitor.
The half-life (t1/2) was calculated by plotting the enzyme activity versus reaction time.

The next test addresses porcine DPIV (Sus scrofa, UniProt P22411). The test is described as follows: Determination of IC50 values against DPIV. The test is classed as biochemical. As to conditions: Gly-Pro-pNA 0.4 mM, APN, 30° C. On the procedure: 100 μl inhibitor stock solution was mixed with 100 μl buffer (HEPES pH7.6) and 20 μl diluted porcine DPIV and preincubated at 30° C. Reaction was started by addition of a mixture of 50 μl substrate (Gly-Pro-pNA, final concentration 0.4 mM) and 2 μl APN stock solution. Formation of the product pNA was measured at 405 nm and 30° C. over 10 min using the HTS 7000Plus plate reader (Perkin Elmer) and slopes were calculated. The final inhibitor concentrations ranged between 1 mM and 30 nM. For calculation of IC50 GraFit 4.0.13 (Erithacus Software) was used.

The subject of another test is Wistar rats. The test is described as follows: Glucose tolerance (OGTT) in Wistar rats under identical experimental conditions. The test is classed as in vivo. The conditions noted are these: 100 mg/kg b.w. oral.

Chain of porcine DPIV (P22411 whole entry): as above

As for `CC(C)[C@H](NC(=O)[C@H](C)N)C(=O)N1CCC[C@H]1C(=O)CSCc1c(Cl)cccc1Cl` [2-{[(2,6-Dichlorobenzyl)thiomethyl]carbonyl}-1-N-[{(L)-Alanyl}-(L)-Valinyl]-(2S)-pyrrolidine], the Ki in test [1] (read-out: Ki) was below 0.1 µM. Besides, the IC50 at porcine DPIV (HEPES pH7.6, read-out: IC50) came to 79.7 µM.

Turning to `CC(C)[C@H](NC(=O)[C@H](C)N)C(=O)N1CCC[C@H]1C(=O)c1ccccn1` [H-Ala Val-Pro-CO-(2-Pyridinyl)*TFA, 2-[(Pyridin-2-yl)carbonyl]-1-N-[{(L)-Alanyl}-(L)-Valinyl]-(2S)-pyrrolidine trifluoroacetate], the half-inhibitory concentration (IC50) on porcine DPIV (HEPES pH7.6, read-out: IC50) came to 1100 µM.

Consider `C[C@H](N)C(=O)NCC(=O)N1CCC[C@H]1C(=O)c1nc2ccccc2s1.O=C(O)C(F)(F)F` [H-Ala-Gly-Pro-CO-Benzothiazole*TFA, 2-[(Benzothiazol-2-yl)carbonyl]-1-N-[{(L)-Alanyl}-Glycyl]-(2S)-pyrrolidine trifluoroacetate], for which the inhibitory constant (Ki) in test [1] (read-out: Ki) is 0.107 µM. Also, in test [1], the “T1/2 (half-life, from enzyme activity versus reaction time)” value is recorded as 5.1 min.

For the compound `CC(C)[C@H](NC(=O)[C@H](C)N)C(=O)N1CCC[C@H]1C(=O)c1nc2ccccc2s1.O=C(O)C(F)(F)F` [H-Ala-Val-Pro-CO-Benzothiazole*TFA, 2-[(Benzothiazol-2-yl)carbonyl]-1-N-[{(L)-Alanyl}-(L)-Valinyl]-(2S)-pyrrolidine trifluoroacetate], in test [1] (read-out: Ki), the Ki was determined as 0.0373 µM. Further, the “T1/2 (half-life, from enzyme activity versus reaction time)” value in test [1] was found to be 17.0 min.

As for `CC(C)[C@H](NC(=O)[C@H](C)N)C(=O)N1CCC[C@H]1C(=O)c1nccs1.O=C(O)C(F)(F)F` [H-Ala-Val-Pro-CO-Thiazole*TFA, 2-[([1,3]-Thiazol-2-yl)carbonyl]-1-N-[{(L)-Alanyl}-(L)-Valinyl]-(2S)-pyrrolidine trifluoroacetate], the inhibitory constant (Ki) in test [1] (read-out: Ki) worked out at 0.0332 µM. Also, in test [1], the “T1/2 (half-life, from enzyme activity versus reaction time)” value is listed as 15.1 min. For the same compound, the IC50 entry at porcine DPIV (HEPES pH7.6) is reported as “no inhibition”.

`Br.CC(C)[C@H](NC(=O)CN)C(=O)N1CCC[C@H]1C(=O)COC(=O)c1ccccc1` [H-Gly-Val-Pro-CO—CH2O—CO—Ph*HBr, 2-[(Benzoyloxy-methyl)carbonyl]-1-N-[Glycyl-(L)-Valinyl]-(2S)-pyrrolidine hydrobromide]: in test [1], the inhibition constant (Ki) entry is “no inhibition”. The IC50 on porcine DPIV (HEPES pH7.6, read-out: IC50) amounted to 4.94 µM.

Take `Br.CC(=O)[C@@H]1CCCN1C(=O)[C@@H](NC(=O)[C@@H]1CCCN1C(=O)[C@@H](N)C(C)C)C(C)C` [H-Val-Pro-Val-Pro-Me*HBr, 2-Methylcarbonyl-1-N-[(L)-Valinyl-(L)-Prolyl-(L)-Valinyl]-(2S)-pyrrolidine hydrobromide]: the AUC test compound in the test on Wistar rats was found to be 66.4 mmol·min/L. Further, the Improvement in the test with Wistar rats (vs AUC control) was determined as 44.1%.
